According to patent US10363245B2, “Methods for treating CNS lesions” (THE BOARD OF REGENTS OF THE UNIVERSITY OF TEXAS SYSTEM, priority 2017, dated 2019):

Columns and labels:
healthy controls = conditions: historical reports; cited from earlier work
MS patients [1] = test: Stage 1A clinical study: single 1000 mg IV ACZ bolus, cerebral blood flow by pCASL MRI
MS patients [2] = test: Stage 1B dose-escalation study: twice daily oral ACZ, cerebral blood flow by pCASL MRI, DTI and T2 relaxometry
[3] = Subj 001, oral 1000 mg BID for 2 weeks, versus baseline

CC(=O)Nc1nnc(S(N)(=O)=O)s1 [ACZ, acetazolamide]
time for cerebral blood flow (CBF) to return near baseline (healthy controls): ≤ 60 min | time for global CBF to return near baseline (MS patients [1]; after IV ACZ, MS patients): 120 min | change in global cerebral perfusion (pCASL) (MS patients [1]; following IV ACZ): Rapid increases | duration of increases in CBF above baseline (MS patients [1]; single 1000 mg IV bolus, regardless of region): up to 180 minutes | tolerability of single IV bolus (MS patients [1]; single bolus of IV ACZ, five MS patients): generally well tolerated without serious AEs | CBF in the region with the larger T2 to T1 mismatch (qualitative pCASL) (MS patients [2]; [3]): increased | qualitative DTI and T2 relaxometry measures (MS patients [2]; [3]): changed little | potential for tachyphylaxis (MS patients [2]; oral, 1000 mg twice daily): limited if any potential for tachyphylaxis | sustained increases in global CBF (MS patients [2]; oral, 1000 mg twice daily): 10-25% | tolerability of oral ACZ (MS patients [2]; oral, 1000 mg twice daily): well tolerated, with minimal reported adverse events
